pEC50: −log10 of the molar value. Where two headings read alike, the source gives them in different places. Numbered stars: 1 amine (or outer) side, 2 acyl side, 3 side chain; on linkers, the order of the positions; unused ones are H or OH. Square brackets hold non-standard residues; d marks the D form. Side chains are listed from the residue outwards. Peptide text beside a SMILES is read from it. * marks the point of attachment. C18 diacid = O=C(O)CCCCCCCCCCCCCCCCC(=O)*; γGlu = O=C(O)[C@H](CCC(=O)[*:2])N[*:1]; αMeF = C[C@](N)(Cc1ccccc1)C(=O)O; αMeK = C[C@](N)(CCCCN)C(=O)O; αMeS = C[C@](N)(CO)C(=O)O; AEEA = NCCOCCOCC(=O)O; Aib = CC(C)(N)C(=O)O
What was measured:
Neprilysin = target: T1, Neprilysin (Homo sapiens, UniProt P08473); assay: Proteolytic resistance to neprilysin (% remaining peptide, RP-HPLC AUC); format: in vitro ADME; conditions: 37° C., pH 8.3; for remaining at 0.5 h / remaining at 1 h / remaining at 2 h / remaining at 4 h / remaining at 8 h / remaining at 24 h: recombinant neprilysin; for remaining at 0.5 h: t = 30 min; for remaining at 1 h: t = 1 hr; for remaining at 2 h: t = 2 hr; for remaining at 4 h: t = 4 hr; for remaining at 8 h: t = 8 hr; for remaining at 24 h: t = 24 hr, read-out: Percentage remaining peptide (AUC at specified time-point by RP-HPLC) upon incubation with neprilysin, t = 24 hr
T1 construct: purchased R&D Systems 1182-ZNC-010
Procedure: Ratio enzyme (units):peptide (μmoles)˜1:33. […] Ratio enzyme (units):peptide (μmoles)˜1:2.5.
15 μL aliquots (˜15 μg initial peptide) of the peptide-enzyme mixture were periodically withdrawn (t=0, 30 mins, 1 hr, 2 hr, 4 hr, 8 hr, 24 hr) and quenched immediately by addition to an equal volume (15 μL) of 5% TFA (v/v) in 1:1 water/acetonitrile to arrest proteolytic activity. 20 μL aliquots (˜10 μg initial peptide) were analyzed by LC/MS and/or analytical RP-HPLC as follows: LC/MS method: Agilent Polaris C8-A column (4.6×100 mm, 3 micron) eluted with a linear binary gradient of 10-90% MeCN (0.1% TFA v/v) in water (0.1% TFA v/v) over 30 mins at 1.5 mL min-1 at ambient temperature with detection by both UV absorption at 210 nm and ionization using a Waters 3100 mass detector (ESI+ mode). Peptide fragments deriving from enzymatic hydrolysis were identified by molecular weight, allowing location of the site of cleavage. Analytical RP-HPLC method: Agilent Polaris C8-A column (4.6×100 mm, 3 micron) eluted with a linear binary gradient of 10-90% MeCN (0.1% TFA v/v) in water (0.1% TFA v/v) over either 10 or 15 mins at 1.5 mL min^−1 at 40° C. with detection by UV absorption at 210 nm. Manual integration (AUC) allowed estimation of remaining intact peptide over the time course of the experiment.
25 μL aliquots (˜6 μg initial peptide) were analyzed by LC/MS and/or analytical RP-HPLC as follows: LC/MS method: Agilent Polaris C8-A column (4.6×100 mm, 3 micron) eluted with a linear binary gradient of 10-90% MeCN (0.1% TFA v/v) in water (0.1% TFA v/v) over 30 mins at 1.5 mL min^−1 at ambient temperature with detection by both UV absorption at 210 nm and ionization using a Waters 3100 mass detector (ESP mode). Peptide fragments deriving from enzymatic hydrolysis were identified by molecular weight, allowing location of the site of cleavage. Analytical RP-HPLC method: Agilent Polaris C8-A column (4.6×100 mm, 3 micron) eluted with a linear binary gradient of 10-90% MeCN (0.1% TFA v/v) in water (0.1% TFA v/v) over either 10 or 15 mins at 1.5 mL min^−1 at 40° C. with detection by UV absorption at 210 nm. Manual integration (AUC) allowed estimation of remaining intact peptide over the time course of the experiment.

[1] = target: T2, human glucagon receptor (GCGR) (Homo sapiens, UniProt P47871); assay: cAMP assay, human GCGR cells; format: cell-based; conditions: cAMP assay
T2 construct: expressed in transfected cells
Outline: (§1)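 Peptide-stimulated cAMP measured by two-step HTRF after a 30 min room-temperature incubation with receptor-expressing cells (hGLP-1R, hGIPR at 1×10^5 cells/ml; hGCGR at 2×10^5 cells/ml). Duplicate dilutions; EC50 from 4-parameter logistic fit of % Delta F.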

pepsin = target: T3, pepsin (Sus scrofa, UniProt P00791); assay: Proteolytic resistance to pepsin (% remaining intact peptide, RP-HPLC AUC); format: in vitro ADME; conditions: pig, porcine pepsin, 37° C., pH 2.0, read-out: Percentage remaining intact peptide (AUC by RP-HPLC) upon incubation with pepsin; for remaining at 0.5 h: t = 30 min; for remaining at 1 h: t = 1 hr; for remaining at 2 h: t = 2 hr; for remaining at 4 h: t = 4 hr; for remaining at 8 h: t = 8 hr; for remaining at 24 h: t = 24 hr
T3 construct: purchased Sigma P7012
Procedure: Lyophilized porcine […] pepsin (Sigma: P7012) was reconstituted to afford a solution of 200 μg/mL (˜500 units/mL) in assay buffer (0.1 M HCl, pH 2.0) to give the enzyme stock solution. […] Ratio enzyme (units):peptide (μmoles)˜1:6. […] Ratio enzyme (units):peptide (μmoles)˜2:1.
Lyophilized porcine […] pepsin (Sigma: P7012) was reconstituted to 200 μg/mL (˜500 units/mL) in assay buffer (1.0 M HCl, pH 2.0) to give the enzyme stock solution.

[2] = target: T4, human glucose-dependent insulinotropic peptide receptor (GIPR) (Homo sapiens, UniProt P48546); assay: cAMP assay, human GIPR cells; format: cell-based; conditions: cAMP assay
T4 construct: expressed in transfected cells
T4 sequence (P48546 22-466): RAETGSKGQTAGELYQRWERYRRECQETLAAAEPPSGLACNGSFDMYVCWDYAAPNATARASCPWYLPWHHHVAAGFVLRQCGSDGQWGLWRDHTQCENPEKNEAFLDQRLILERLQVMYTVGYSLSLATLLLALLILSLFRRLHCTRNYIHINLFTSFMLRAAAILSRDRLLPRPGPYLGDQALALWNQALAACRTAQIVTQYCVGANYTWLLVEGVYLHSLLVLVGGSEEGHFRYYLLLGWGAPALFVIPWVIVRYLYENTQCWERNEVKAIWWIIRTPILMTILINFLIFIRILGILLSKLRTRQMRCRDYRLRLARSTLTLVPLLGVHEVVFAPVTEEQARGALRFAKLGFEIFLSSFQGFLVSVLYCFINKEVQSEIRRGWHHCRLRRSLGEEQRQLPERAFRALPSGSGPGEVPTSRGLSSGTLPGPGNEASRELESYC
Outline: as §1

GLP-1R (INS1e assay) = target: T5, GLP-1R (INS1e assay) (Rattus norvegicus, UniProt P32301); assay: INS1e assay, cAMP activity at GLP-1R; format: cell-based; conditions: mono-lipidated peptides; for EC50: mean of n1 and n2, read-out: INS1e assay EC50 Mean pM GLP-1R
T5 construct: endogenous in cells; host or cells: INS-1E cells
T5 sequence (P32301 22-463): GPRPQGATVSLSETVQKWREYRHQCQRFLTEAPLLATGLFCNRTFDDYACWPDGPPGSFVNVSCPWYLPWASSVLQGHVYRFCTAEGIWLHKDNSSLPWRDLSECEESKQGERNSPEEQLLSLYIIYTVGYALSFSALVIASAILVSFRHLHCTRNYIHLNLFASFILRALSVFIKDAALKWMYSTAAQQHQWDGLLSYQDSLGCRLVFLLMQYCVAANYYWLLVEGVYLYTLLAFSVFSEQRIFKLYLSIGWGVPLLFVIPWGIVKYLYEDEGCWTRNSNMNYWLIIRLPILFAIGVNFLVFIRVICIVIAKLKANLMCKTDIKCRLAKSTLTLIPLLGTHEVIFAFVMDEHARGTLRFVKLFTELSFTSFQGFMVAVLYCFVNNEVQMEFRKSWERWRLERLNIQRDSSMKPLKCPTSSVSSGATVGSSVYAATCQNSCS
Outline: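 It pairs cAMP-d2 acceptor with anti-cAMP cryptate donor, both prepared 1/20 in conjugate/lysis buffer, applied as a two-step protocol.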

trypsin = target: T6, trypsin (Sus scrofa, UniProt P00761); assay: Proteolytic resistance to trypsin (% remaining intact peptide, RP-HPLC AUC); format: in vitro ADME; conditions: pig, porcine pancreatic trypsin, 37° C., pH 7.8, read-out: Percentage remaining intact peptide (AUC by RP-HPLC) upon incubation with trypsin; for remaining at 0.5 h: t = 30 min; for remaining at 1 h: t = 1 hr; for remaining at 2 h: t = 2 hr; for remaining at 4 h: t = 4 hr; for remaining at 8 h: t = 8 hr; for remaining at 24 h: t = 24 hr
T6 construct: purchased Sigma T7409
Description: Ratio enzyme (units):peptide (μmoles)˜1:11. […] Ratio enzyme (units):peptide (μmoles)˜1.2:1.

[3] = target: T7, human GLP-1 receptor (GLP-1R) (Homo sapiens, UniProt P43220); assay: cAMP assay, human GLP-1R cells; format: cell-based; conditions: for pEC50: cAMP assay; for EC50: mean of n1 and n2, read-out: Mean pM GLP-1R
T7 construct: expressed in transfected cells
Outline: as §1

[4] = first determination (n1), read-out: Primary assay EC50 Gluc-R (n1)
[5] = second determination (n2), read-out: Primary assay EC50 Gluc-R (n2)
[6] = first determination (n1), read-out: Primary assay EC50 GIP-R (n1)
[7] = second determination (n2), read-out: Primary assay EC50 GIP-R (n2)
[8] = replicate n1, read-out: INS1e assay EC50 GLP-1R n1
[9] = replicate n2, read-out: INS1e assay EC50 GLP-1R n2
[10] = first determination (n1), read-out: Primary assay EC50 GLP-1R n1
[11] = second determination (n2), read-out: Primary assay EC50 GLP-1R n2

T3 sequence (P00791 60-385): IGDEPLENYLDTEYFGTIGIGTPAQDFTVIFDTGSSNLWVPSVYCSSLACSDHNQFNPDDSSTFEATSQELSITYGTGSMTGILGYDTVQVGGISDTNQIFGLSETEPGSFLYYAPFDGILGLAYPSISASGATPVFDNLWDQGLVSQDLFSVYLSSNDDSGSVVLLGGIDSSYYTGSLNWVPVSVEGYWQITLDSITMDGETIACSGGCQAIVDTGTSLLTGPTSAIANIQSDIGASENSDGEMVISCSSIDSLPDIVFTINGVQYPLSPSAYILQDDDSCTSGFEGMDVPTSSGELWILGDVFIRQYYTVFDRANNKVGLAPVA
T6 sequence (P00761 9-231): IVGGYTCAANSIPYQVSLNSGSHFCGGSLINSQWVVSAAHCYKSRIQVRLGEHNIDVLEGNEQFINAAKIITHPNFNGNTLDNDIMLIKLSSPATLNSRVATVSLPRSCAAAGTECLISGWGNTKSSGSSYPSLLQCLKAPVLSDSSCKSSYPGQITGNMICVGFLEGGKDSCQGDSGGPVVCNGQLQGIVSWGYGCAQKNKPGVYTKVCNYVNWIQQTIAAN
T7 sequence (P43220 24-463): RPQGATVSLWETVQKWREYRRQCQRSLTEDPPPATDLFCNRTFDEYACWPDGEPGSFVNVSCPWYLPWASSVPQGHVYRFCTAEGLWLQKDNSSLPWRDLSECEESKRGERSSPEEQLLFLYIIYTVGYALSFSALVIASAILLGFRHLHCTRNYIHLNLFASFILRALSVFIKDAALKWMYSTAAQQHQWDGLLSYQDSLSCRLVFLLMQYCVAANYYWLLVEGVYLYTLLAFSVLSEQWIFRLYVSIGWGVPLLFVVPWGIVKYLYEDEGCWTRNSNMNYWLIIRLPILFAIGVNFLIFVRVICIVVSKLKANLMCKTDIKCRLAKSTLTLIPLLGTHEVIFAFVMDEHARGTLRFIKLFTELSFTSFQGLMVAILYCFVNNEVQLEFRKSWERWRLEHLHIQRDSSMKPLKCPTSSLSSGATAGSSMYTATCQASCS
T2 sequence (P47871 26-477): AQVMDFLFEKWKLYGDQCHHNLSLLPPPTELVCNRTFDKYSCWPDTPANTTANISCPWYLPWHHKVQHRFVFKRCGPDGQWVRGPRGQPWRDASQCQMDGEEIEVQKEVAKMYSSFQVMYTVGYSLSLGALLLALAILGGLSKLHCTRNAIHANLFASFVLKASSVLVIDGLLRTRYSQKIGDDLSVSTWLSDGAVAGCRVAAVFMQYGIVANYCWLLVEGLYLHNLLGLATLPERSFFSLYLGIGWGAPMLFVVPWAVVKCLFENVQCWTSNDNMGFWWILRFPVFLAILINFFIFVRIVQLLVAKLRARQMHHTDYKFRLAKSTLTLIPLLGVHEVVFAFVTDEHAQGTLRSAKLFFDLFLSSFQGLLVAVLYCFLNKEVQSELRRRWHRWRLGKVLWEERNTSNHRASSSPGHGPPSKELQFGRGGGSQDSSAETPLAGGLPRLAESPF
T1 sequence (P08473 whole entry): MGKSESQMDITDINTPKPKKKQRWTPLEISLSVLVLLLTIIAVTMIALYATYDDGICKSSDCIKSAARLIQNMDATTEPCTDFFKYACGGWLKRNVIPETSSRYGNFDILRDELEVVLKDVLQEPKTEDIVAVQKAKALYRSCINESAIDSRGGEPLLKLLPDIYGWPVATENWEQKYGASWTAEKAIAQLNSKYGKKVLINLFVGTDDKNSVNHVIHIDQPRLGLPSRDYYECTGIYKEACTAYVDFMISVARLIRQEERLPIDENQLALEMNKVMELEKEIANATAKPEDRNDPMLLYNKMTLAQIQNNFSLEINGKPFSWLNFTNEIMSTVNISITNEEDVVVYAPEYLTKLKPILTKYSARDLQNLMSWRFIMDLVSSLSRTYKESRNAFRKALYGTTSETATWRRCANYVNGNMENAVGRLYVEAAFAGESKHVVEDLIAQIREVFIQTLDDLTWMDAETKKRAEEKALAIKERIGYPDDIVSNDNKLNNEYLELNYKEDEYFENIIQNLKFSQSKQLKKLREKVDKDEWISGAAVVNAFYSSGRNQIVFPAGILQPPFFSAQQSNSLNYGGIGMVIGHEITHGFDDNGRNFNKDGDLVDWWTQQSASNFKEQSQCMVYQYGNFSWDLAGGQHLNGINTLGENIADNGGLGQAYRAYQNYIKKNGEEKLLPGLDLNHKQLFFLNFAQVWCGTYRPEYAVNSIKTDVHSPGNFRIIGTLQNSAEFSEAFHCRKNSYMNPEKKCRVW

Structure (SMILES): CC[C@H](C)[C@H](NC(=O)[C@H](Cc1ccccc1)NC(=O)[C@H](CCC(=O)O)NC(=O)[C@H](CCCCNC(=O)COCCOCCNC(=O)COCCOCCNC(=O)CC[C@H](NC(=O)CCCCCCCCCCCCCCCCC(=O)O)C(=O)O)NC(=O)[C@H](C)NC(=O)[C@H](C)NC(=O)[C@H](CCC(=O)O)NC(=O)CNC(=O)[C@H](CCC(=O)O)NC(=O)[C@H](CC(C)C)NC(=O)[C@](C)(Cc1ccccc1)NC(=O)[C@H](CO)NC(=O)[C@](C)(CO)NC(=O)[C@@H](NC(=O)[C@H](CC(=O)O)NC(=O)[C@H](CO)NC(=O)[C@@H](NC(=O)[C@](C)(Cc1ccccc1)NC(=O)[C@H](CO)NC(=O)CNC(=O)[C@H](CCC(=O)O)NC(=O)C(C)(C)NC(=O)[C@@H](N)Cc1c[nH]cn1)[C@@H](C)O)C(C)C)C(=O)N[C@@H](C)C(=O)N[C@@](C)(Cc1ccccc1)C(=O)N[C@H](C(=O)N[C@H](C(=O)N[C@@](C)(CCCCN)C(=O)NCC(=O)NCC(N)=O)C(C)C)C(C)C [compound 48]
- remaining at 0.5 h (Neprilysin): 96.8%
- remaining at 1 h (Neprilysin): 96.5%
- remaining at 2 h (Neprilysin): 93%
- remaining at 4 h (Neprilysin): 93.9%
- remaining at 8 h (Neprilysin): 89.5%
- remaining at 24 h (Neprilysin): 90%
- Percentage remaining peptide (AUC at specified time-point by RP-HPLC) upon incubation with neprilysin, t = 0 (Neprilysin): 100%
- pEC50 [1, 4]: ≤ 7.59
- pEC50 [1, 5]: ≤ 7.59
- remaining at 0.5 h (pepsin): 89.1%
- remaining at 1 h (pepsin): 80.8%
- remaining at 2 h (pepsin): 71.4%
- remaining at 4 h (pepsin): 60.6%
- remaining at 8 h (pepsin): 45.9%
- remaining at 24 h (pepsin): 9.4%
- pEC50 [2, 6]: ≤ 7.59
- pEC50 [2, 7]: ≤ 7.59
- EC50 (GLP-1R (INS1e assay)): 800 pM
- pEC50 (GLP-1R (INS1e assay); [8]): 9.14
- pEC50 (GLP-1R (INS1e assay); [9]): 9.06
- remaining at 0.5 h (trypsin): 93%
- remaining at 1 h (trypsin): 89.2%
- remaining at 2 h (trypsin): 83.5%
- remaining at 4 h (trypsin): 75.6%
- remaining at 8 h (trypsin): 68.9%
- remaining at 24 h (trypsin): 56.5%
- pEC50 [3, 10]: 11.41
- pEC50 [3, 11]: 11.09
- EC50 [3]: 6.1 pM

Structure (SMILES): CC[C@H](C)[C@H](NC(=O)[C@H](Cc1ccccc1)NC(=O)[C@H](CCC(=O)O)NC(=O)[C@](C)(CCCCN)NC(=O)[C@H](C)NC(=O)[C@H](C)NC(=O)[C@H](CCC(=O)O)NC(=O)CNC(=O)[C@H](CCC(=O)O)NC(=O)[C@H](CC(C)C)NC(=O)[C@](C)(Cc1ccccc1)NC(=O)[C@H](CO)NC(=O)[C@](C)(CO)NC(=O)[C@@H](NC(=O)[C@H](CC(=O)O)NC(=O)[C@H](CO)NC(=O)[C@@H](NC(=O)[C@](C)(Cc1ccccc1)NC(=O)[C@H](CO)NC(=O)CNC(=O)[C@H](CCC(=O)O)NC(=O)C(C)(C)NC(=O)[C@@H](N)Cc1c[nH]cn1)[C@@H](C)O)C(C)C)C(=O)N[C@@H](CCCCNC(=O)COCCOCCNC(=O)COCCOCCNC(=O)CC[C@H](NC(=O)CCCCCCCCCCCCCCCCC(=O)O)C(=O)O)C(=O)N[C@@H](Cc1c[nH]c2ccccc12)C(=O)N[C@H](C(=O)N[C@H](C(=O)N[C@@H](CCC(=O)O)C(=O)NCC(=O)NCC(N)=O)C(C)C)C(C)C [compound 68] (H-H[Aib]EGS[αMeF]TSDV[αMeS]S[αMeF]LEGEAA[αMeK]EFIK([AEEA-AEEA-γGlu-C18 diacid])WVVEGG-NH2; N-terminus assumed)
- remaining at 0.5 h (Neprilysin): 97.4%
- remaining at 1 h (Neprilysin): 95.4%
- remaining at 2 h (Neprilysin): 96.4%
- remaining at 4 h (Neprilysin): 95.4%
- remaining at 8 h (Neprilysin): 93.9%
- remaining at 24 h (Neprilysin): 94.9%
- Percentage remaining peptide (AUC at specified time-point by RP-HPLC) upon incubation with neprilysin, t = 0 (Neprilysin): 100%
- pEC50 [1, 4]: ≤ 7.60
- pEC50 [1, 5]: ≤ 7.60
- remaining at 0.5 h (pepsin): 96.5%
- remaining at 1 h (pepsin): 94.7%
- remaining at 2 h (pepsin): 92.2%
- remaining at 4 h (pepsin): 88.2%
- remaining at 8 h (pepsin): 86%
- remaining at 24 h (pepsin): 85.3%
- pEC50 [2, 6]: ≤ 7.60
- pEC50 [2, 7]: ≤ 7.60
- EC50 (GLP-1R (INS1e assay)): 3780 pM
- pEC50 (GLP-1R (INS1e assay); [8]): 8.57
- pEC50 (GLP-1R (INS1e assay); [9]): 8.31
- remaining at 0.5 h (trypsin): 92.3%
- remaining at 1 h (trypsin): 86.2%
- remaining at 2 h (trypsin): 76.8%
- remaining at 4 h (trypsin): 48.6%
- remaining at 8 h (trypsin): 39.8%
- remaining at 24 h (trypsin): 27.4%
- pEC50 [3, 10]: 10.66
- pEC50 [3, 11]: 10.81
- EC50 [3]: 18.8 pM
